Like-named read-outs stand apart in the source and are kept apart here.
Assays:
[1] = test system: HepG2 cells; assay: IC20-72 hours value used as exposure dose in HepG2 cells; assay type: cell-based, human
Experimental: All measurements were performed in triplicate.

[2] = test system: microRNA 1262, microRNA 98 and microRNA 30c-1
[3] = GTX/NGTX class as in Tables 3-7; cited from earlier work
[4] = test system: hsa-miR-1262
[5] = test system: hsa-miR-98
[6] = test system: hsa-miR-30c-1*
[7] = test system: hsa-miR-885-3p
[8] = test system: hsa-miR-888*
[9] = test system: hsa-miR-1229
[10] = test system: hsa-miR-891b
[11] = test system: hsa-miR-302b
[12] = test system: hsa-miR-1246
[13] = test system: hsa-miR-502-3p
[14] = test system: bacteria; conditions: cited from earlier work
[15] = HepG2 cells, IC20-72 hours, read-out: Dose (IC20-72 hours value)
[16] = number of the three microRNAs predicting correctly
[17] = Homo sapiens, HepG2 cells, IC20-72 hours, read-out: Dose (IC20-72 hours value)
[18] = HepG2 cells exposed at Table 1 dose
[19] = correct predictions of three independent experiments

| Compound | IC20 [1, 15] [µM] | Aggregate result, correct [2, 16] | GTX in vivo [3] | IC20 [1, 17] [µM] | Score / correctness of miRNA prediction, 1262 (number of correct predictions of three independent experiments) [4, 18] | Score / correctness of miRNA prediction, 98 (number of correct predictions of three independent experiments) [5, 18] | Score / correctness of miRNA prediction, 30c-1 (number of correct predictions of three independent experiments) [6, 18] | correctness of microRNA prediction, 885-3p [7, 19] | correctness of microRNA prediction, 888* [8, 19] | correctness of microRNA prediction, 1229 [9, 19] | correctness of microRNA prediction, 891b [10, 19] | correctness of microRNA prediction, 302b [11, 19] | correctness of microRNA prediction, 1246 [12, 19] | correctness of microRNA prediction, 502-3p [13, 19] | further results |
| --- | --- | --- | --- | --- | --- | --- | --- | --- | --- | --- | --- | --- | --- | --- | --- |
| N.N.[Cl][Pt][Cl] [Cisplatin] | 7 | 3/3 | GTX |  |  |  |  |  |  |  |  |  |  |  |  |
| O=c1c(O)c(-c2ccc(O)c(O)c2)oc2cc(O)cc(O)c12 [Quercetin] |  | 2/3 | NGTX | 50 | (3/3) | (1/3) | (3/3) | (1/3) | (1/3) | (1/3) | (2/3) | (1/3) | (2/3) | (1/3) |  |
| C[C@]12CC[C@@H]3c4ccc(O)cc4CC[C@H]3[C@@H]1CC[C@@H]2O [17beta-estradiol, 17 beta-estradiol] | 30 | 3/3 | NGTX |  |  |  |  |  |  |  |  |  |  |  |  |
| Oc1cccc2cccnc12 [8-quinolinol] |  |  |  |  |  |  |  |  |  |  |  |  |  |  | IC20 ([1]; Homo sapiens, HepG2, read-out: Dose (IC20-72 hours value)): 15 µM; Prediction, miRNA 98 [5]: NGTX (key: GTX: hsa-miR-98: Prediction if Expression is above Reference value; NGTX: hsa-miR-98: Prediction if Expression is below Reference value); Score / correctness of miRNA prediction, 98 (number of correct predictions of three independent experiments) ([5]; human): (3/3); Prediction, miRNA 30c-1 [6]: GTX (key: GTX: hsa-miR-30c-1*: Prediction if Expression is above Reference value; NGTX: hsa-miR-30c-1*: Prediction if Expression is below Reference value); Score / correctness of miRNA prediction, 30c-1 (number of correct predictions of three independent experiments) ([6]; human): (1/3); Aggregate result, result [2]: NGTX; Aggregate result, correct ([2]; human): 2/3; correctness of microRNA prediction, 885-3p ([7]; human): (1/3); correctness of microRNA prediction, 888* ([8]; human): (3/3); correctness of microRNA prediction, 1229 ([9]; human): (3/3); correctness of microRNA prediction, 891b ([10]; human): (3/3); correctness of microRNA prediction, 302b ([11]; human): (1/3); correctness of microRNA prediction, 1246 ([12]; human): (0/3); correctness of microRNA prediction, 502-3p ([13]; human): (2/3); Ames test result [14]: + |
| c1ccc2c(c1)cc1ccc3cccc4ccc2c1c34 [Benzo[a]pyere] | 2 | 3/3 |  |  | (2/3) | (2/3) | (2/3) | (2/3) | (2/3) | (3/3) | (3/3) | (2/3) | (3/3) | (2/3) |  |
| Clc1cc2c(cc1Cl)Oc1cc(Cl)c(Cl)cc1O2 [2,3,7,8-tetrachloro dibenzo-p-dioxin] |  | 3/3 | NGTX | 0.01 | (3/3) | (3/3) | (2/3) | (3/3) | (1/3) | (2/3) | (2/3) | (2/3) | (3/3) | (2/3) | Ames test result [14]: − |
| Aflatoxin B1 |  |  |  |  |  |  |  |  |  |  |  |  |  |  | IC20 ([1]; read-out: Dose (IC20-72 hours value)): 1 µM; Score / correctness of miRNA prediction, 1262 (number of correct predictions of three independent experiments) [4]: (2/3); Score / correctness of miRNA prediction, 98 (number of correct predictions of three independent experiments) [5]: (2/3); Score / correctness of miRNA prediction, 30c-1 (number of correct predictions of three independent experiments) [6]: (2/3); Aggregate result, correct [2]: 3/3; correctness of microRNA prediction, 885-3p [7]: (1/3); correctness of microRNA prediction, 888* [8]: (3/3); correctness of microRNA prediction, 1229 [9]: (1/3); correctness of microRNA prediction, 891b [10]: (2/3); correctness of microRNA prediction, 302b [11]: (2/3); correctness of microRNA prediction, 1246 [12]: (1/3); correctness of microRNA prediction, 502-3p [13]: (2/3) |
| CC1(C)S[C@@H]2[C@H](NC(=O)[C@H](N)c3ccccc3)C(=O)N2[C@H]1C(=O)O [Ampicillin trihydrate] |  | 3/3 |  | 250 | (2/3) | (3/3) | (3/3) | (3/3) | (3/3) | (3/3) | (2/3) | (2/3) | (1/3) | (3/3) |  |

Reference: US20130244896A1, “IN VITRO METHOD FOR PREDICTING WHETHER A COMPOUND IS GENOTOXIC IN VIVO” (priority 2012, published 2013)
